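Interpolation was linear, between the two tested concentrations surrounding the appropriate level; five concentrations were tested over 48 hours in 96-well plates. TGI: concentration producing complete growth inhibition.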
Key:
Assay in all cases: NCI tumour cell line growth inhibition, 48 h
MDA-MB-435 = tested on: MDA-MB-435
HT29 colon = tested on: HT29 colon
OVCAR-5 ovarian = tested on: OVCAR-5 ovarian
DU-145 prostate = tested on: DU-145 prostate
BT-549 breast = tested on: BT-549 breast
SNB-78 CNS = tested on: SNB-78 CNS
KM20L2 colon = tested on: KM20L2 colon
MOLT-4 leukemia = tested on: MOLT-4 leukemia
UACC-257 melanoma = tested on: UACC-257 melanoma
SK-OV-3 ovarian = tested on: SK-OV-3 ovarian
SN12C renal = tested on: SN12C renal
RXF 393 renal = tested on: RXF 393 renal
CCRF-CEM leukemia = tested on: CCRF-CEM leukemia
HCC-2998 colon = tested on: HCC-2998 colon
NCI-H226 lung = tested on: NCI-H226 lung
SK-MEL-2 melanoma = tested on: SK-MEL-2 melanoma
786-0 renal = tested on: 786-0 renal
UACC-62 melanoma = tested on: UACC-62 melanoma
RXF-631 renal = tested on: RXF-631 renal
HCT-15 colon = tested on: HCT-15 colon
SNB-75 CNS = tested on: SNB-75 CNS
HCT-116 colon = tested on: HCT-116 colon
OVCAR-4 ovarian = tested on: OVCAR-4 ovarian
A549 NSCLC = tested on: A549 NSCLC
A498 renal = tested on: A498 renal
SR leukemia = tested on: SR leukemia
LXFL 529 NSCLC = tested on: LXFL 529 NSCLC
OVCAR-8 ovarian = tested on: OVCAR-8 ovarian
DMS 273 small cell lung = tested on: DMS 273 small cell lung
K-562 leukemia = tested on: K-562 leukemia
HL-60(TB) leukemia = tested on: HL-60(TB) leukemia
LOX IMVI melanoma = tested on: LOX IMVI melanoma
TK-10 renal = tested on: TK-10 renal
NCI/ADR-RES ovarian = tested on: NCI/ADR-RES ovarian
PC-3 prostate = tested on: PC-3 prostate
SF-268 CNS = tested on: SF-268 CNS
HS 578T breast = tested on: HS 578T breast
NCI-H460 lung = tested on: NCI-H460 lung
HOP-18 NSCLC = tested on: HOP-18 NSCLC
MDA-MB-231 breast = tested on: MDA-MB-231 breast
ACHN renal = tested on: ACHN renal
DMS 114 small cell lung = tested on: DMS 114 small cell lung
U251 CNS = tested on: U251 CNS
IGROV1 ovarian = tested on: IGROV1 ovarian
SK-MEL-28 melanoma = tested on: SK-MEL-28 melanoma
HOP-92 NSCLC = tested on: HOP-92 NSCLC
MDA-N = tested on: MDA-N
CAKI-1 renal = tested on: CAKI-1 renal
UO-31 renal = tested on: UO-31 renal
NCI-H23 lung = tested on: NCI-H23 lung
MCF7 breast = tested on: MCF7 breast
KM12 colon = tested on: KM12 colon
M19-MEL melanoma = tested on: M19-MEL melanoma
EKVX NSCLC = tested on: EKVX NSCLC
NCI-H522 lung = tested on: NCI-H522 lung
SF-539 CNS = tested on: SF-539 CNS
MALME-3M melanoma = tested on: MALME-3M melanoma
SNB-19 CNS = tested on: SNB-19 CNS
M14 melanoma = tested on: M14 melanoma
SW-620 colon = tested on: SW-620 colon
SK-MEL-5 melanoma = tested on: SK-MEL-5 melanoma
RPMI-8226 leukemia = tested on: RPMI-8226 leukemia
COLO 205 colon = tested on: COLO 205 colon
XF 498 CNS = tested on: XF 498 CNS
OVCAR-3 ovarian = tested on: OVCAR-3 ovarian
SF-295 CNS = tested on: SF-295 CNS
HOP-62 NSCLC = tested on: HOP-62 NSCLC
DLD-1 colon = tested on: DLD-1 colon

## O=C1/C(=C/c2ccc(Cl)c(Cl)c2)CNC/C1=C\c1ccc(Cl)c(Cl)c1
MDA-MB-435
  TGI: 43.7 µM
HT29 colon
  TGI: 45.2 µM
OVCAR-5 ovarian
  TGI: 37.4 µM
DU-145 prostate
  TGI: > 100 µM
BT-549 breast
  TGI: 87.2 µM
SNB-78 CNS
  TGI: > 100 µM
KM20L2 colon
  TGI: 24.2 µM
MOLT-4 leukemia
  TGI: 28.3 µM
UACC-257 melanoma
  TGI: 72.8 µM
SK-OV-3 ovarian
  TGI: 69.6 µM
SN12C renal
  TGI: 12.9 µM
RXF 393 renal
  TGI: 29.5 µM
CCRF-CEM leukemia
  TGI: 5.68 µM
HCC-2998 colon
  TGI: 21.7 µM
NCI-H226 lung
  TGI: 39.9 µM
SK-MEL-2 melanoma
  TGI: 49.3 µM
786-0 renal
  TGI: 5.53 µM
UACC-62 melanoma
  TGI: 29.1 µM
RXF-631 renal
  TGI: > 100 µM
HCT-15 colon
  TGI: 7.95 µM
SNB-75 CNS
  TGI: 33.9 µM
HCT-116 colon
  TGI: 5.66 µM
OVCAR-4 ovarian
  TGI: 6.3 µM
A549 NSCLC
  TGI: 67.1 µM
A498 renal
  TGI: 32.2 µM
SR leukemia
  TGI: > 24 µM
LXFL 529 NSCLC
  TGI: 12.2 µM
OVCAR-8 ovarian
  TGI: 16 µM
DMS 273 small cell lung
  TGI: 19.2 µM
K-562 leukemia
  TGI: 19.5 µM
HL-60(TB) leukemia
  TGI: > 64.2 µM
LOX IMVI melanoma
  TGI: 13.5 µM
TK-10 renal
  TGI: 80 µM
NCI/ADR-RES ovarian
  TGI: 14.1 µM
PC-3 prostate
  TGI: 47.7 µM
SF-268 CNS
  TGI: 16.4 µM
HS 578T breast
  TGI: 19.3 µM
NCI-H460 lung
  TGI: 29.1 µM
HOP-18 NSCLC
  TGI: > 91.9 µM
MDA-MB-231 breast
  TGI: 8.7 µM
ACHN renal
  TGI: 35.6 µM
DMS 114 small cell lung
  TGI: > 32.7 µM
U251 CNS
  TGI: 11.9 µM
IGROV1 ovarian
  TGI: 18.8 µM
SK-MEL-28 melanoma
  TGI: 62.9 µM
HOP-92 NSCLC
  TGI: 50.7 µM
MDA-N
  TGI: 39.9 µM
CAKI-1 renal
  TGI: 24.3 µM
UO-31 renal
  TGI: 32.2 µM
NCI-H23 lung
  TGI: 26.9 µM
MCF7 breast
  TGI: 50 µM
KM12 colon
  TGI: 24.9 µM
M19-MEL melanoma
  TGI: > 58.1 µM
EKVX NSCLC
  TGI: 13.6 µM
NCI-H522 lung
  TGI: 26.7 µM
SF-539 CNS
  TGI: 15.9 µM
MALME-3M melanoma
  TGI: > 66.5 µM
SNB-19 CNS
  TGI: 32.6 µM
M14 melanoma
  TGI: 33.9 µM
SW-620 colon
  TGI: 11.9 µM
SK-MEL-5 melanoma
  TGI: > 70.4 µM
RPMI-8226 leukemia
  TGI: > 49.8 µM
COLO 205 colon
  TGI: 17.3 µM
XF 498 CNS
  TGI: 35.9 µM
OVCAR-3 ovarian
  TGI: 7.54 µM
SF-295 CNS
  TGI: 76.6 µM
HOP-62 NSCLC
  TGI: 38.8 µM
DLD-1 colon
  TGI: 3.84 µM
